Patent publication US20050153021A1, “Calcium-fortified protein-based beverage containing calcium (lactate) gluconate citrate” (PURAC BIOCHEM BV, priority 2003, published 2005)

Columns and labels:
[1] = Stability test in presence of protein: calcium salt added to milk, heat treatment; type: physicochemical; settings: 600 ppm calcium added
[2] = Stability test in presence of protein: calcium salt added to soy milk, heat treatment; type: physicochemical; settings: 600 ppm calcium added

SMILES | protein stability (coagulation) of the fortified milk after heat treatment [1] | protein stability (coagulation / viscosity) of the fortified soy milk after heat treatment [2]
CC(O)C(=O)O.O=C(O)[C@H](O)[C@@H](O)[C@H](O)[C@H](O)CO.O=C([O-])CC(O)(CC(=O)[O-])C(=O)O.[Ca+2] [calcium lactate gluconate citrate] | coaglulated a little to become a quark like substance | somewhat increased viscosity after heat treatment, but was still pourable
CC(O)C(=O)[O-].O=C([O-])[C@H](O)[C@@H](O)[C@H](O)[C@H](O)CO.[Ca+2] [calcium lactate gluconate] | completely coagulated to a firm substance | completely coagulated to a firm substance
